Experimental data reported in US20060258711A1, “Treatment of drug abuse” (Wyeth, priority 2005, published 2006).

Test system: rats
Test: Open field test of locomotor activity with or without cocaine
Format: in vivo, rat
Settings: dosed 1 hour before 5-minute open field test
Procedure: Rats were dosed either with vehicle or with cocaine in the presence or absence of Compound 1 (0.1 mg/kg. sc). One hour after dosing (i.p. & s.c.), rats were put in a open field, where distance moved and zones crossed were recorded by the ethovision program.
Animals were brought to the lab room 1 hour before the start of the experiment. Rats were injected with compound(s) 1 hour before being placed in the open field. Rats were then placed in open field, and the test lasted for five minutes.

Q: What does the source list for `NCC1Cc2cc(F)cc(-c3c(Cl)cccc3Cl)c2O1` (centres unmarked) [Compound 1, (7-(2,6-dichlorophenyl)-5-fluoro-2,3-dihydrobenzofuran-2-yl)methanamine]?
A: reversal of the hyperactivity produced by cocaine (0.1 mg/kg sc + cocaine 3 mg/kg ip, FIG. 1): completely reversed; effect on locomotor activity alone (0.1 mg/kg sc + vehicle): no effect
